Literature values, collected in patent US20200276216A1, “INHIBITION OF GLYCOLYSIS WITH 2-DEOXY-D-GLUCOSE AND D-LACTIC ACID DIMER” (priority 2020, published 2020).

What was measured:
[1] = in vivo
[2] = in vivo, po
cancer cells = conditions: dose dependent, exclusive of its ability to lower pH

SMILES	estimated maximum approximate dose before side effects become clinically significant [1] [mg/kg/day]	half-life [2] [h]	selectivity of action in vitro (cancer cells)
O=CC[C@@H](O)[C@H](O)[C@H](O)CO [2DG, 2-Dexoxy-D-Glucose]	~60	4.5 to 8.2	–
C[C@@H](O)C(=O)O[C@H](C)C(=O)O [DLAD, D-Lactic Acid Dimer]	–	–	selective for cancer cells
